The target in experiment [1] is human GLP-1 receptor (hGLP-1R) (Homo sapiens, UniProt P43220). Put plainly: cAMP production (HTRF) in CHO cells expressing hGLP-1R. Further details: expressed in transfected cells. The experiment is classed as cell-based. The note with it: for EC50: cAMP in CHO hGLP-1R cells, geometric mean, read-out: hGLP-1R EC50; for % Relative Potency Ratio: % GLP-1R activity relative to GLP-1 / % GlucR activity relative to glucagon. The essentials: (§1)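 Potency values represent EC50 from 4-parameter logistic curves of HTRF % Delta F signal. Receptor-expressing CHO cells (hGCGR 2×10^5 cells/mL, hGLP-1R 1×10^5 cells/mL) were exposed for 30 min at room temperature before two-step cAMP detection.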
For orientation: cAMP levels reflect the balance of adenylyl cyclase and phosphodiesterase activity.

Experiment [2] has as its target human glucagon receptor (hGCGR) (Homo sapiens, UniProt P47871). The experiment is described as follows: cAMP production (HTRF) in CHO cells expressing hGCGR. The class given is cell-based. Details: expressed in transfected cells. The note with it: cAMP in CHO hGCGR cells, geometric mean, read-out: hGluc-R EC50. The essentials:
as §1

[3] abbreviates: Table 6, peptides modified at position 17.
[4] abbreviates: Table 7, peptides modified at position 20.

As a reminder, the EC50 is the concentration at which the effect is half-maximal.

Like-named read-outs stand apart in the source and are kept apart here. Starred links: 1 amine or outer side, 2 acyl side, 3 side chain; linkers in the order of their positions; H or OH if unused. Non-standard residues stand in square brackets, D forms with d. Residues, ends and D or L forms follow the SMILES beside them. Groups on a side chain read outwards from the residue. *: point of attachment. C18 diacid = O=C(O)CCCCCCCCCCCCCCCCC(=O)*; γGlu = O=C(O)[C@H](CCC(=O)[*:2])N[*:1]; Stearoyl = CCCCCCCCCCCCCCCCCC(=O)*; αMeF = C[C@](N)(Cc1ccccc1)C(=O)O; PEG2 = NCCOCCOCCC(=O)O; AEEA = NCCOCCOCC(=O)O; Aib = CC(C)(N)C(=O)O

human GLP-1 receptor (hGLP-1R), sequence (P43220 24-463): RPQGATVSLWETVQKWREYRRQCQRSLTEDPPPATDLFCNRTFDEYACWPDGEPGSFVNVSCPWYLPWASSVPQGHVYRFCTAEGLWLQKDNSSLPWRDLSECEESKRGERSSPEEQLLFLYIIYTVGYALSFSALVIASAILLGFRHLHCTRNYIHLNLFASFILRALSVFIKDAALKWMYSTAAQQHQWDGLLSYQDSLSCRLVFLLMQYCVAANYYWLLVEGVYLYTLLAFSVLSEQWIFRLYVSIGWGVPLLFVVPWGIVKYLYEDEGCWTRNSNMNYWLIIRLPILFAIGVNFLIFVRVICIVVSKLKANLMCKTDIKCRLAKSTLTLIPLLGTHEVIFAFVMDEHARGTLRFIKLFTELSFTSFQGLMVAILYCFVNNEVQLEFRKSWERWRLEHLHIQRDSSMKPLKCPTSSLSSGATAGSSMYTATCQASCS
human glucagon receptor (hGCGR), sequence (P47871 26-477): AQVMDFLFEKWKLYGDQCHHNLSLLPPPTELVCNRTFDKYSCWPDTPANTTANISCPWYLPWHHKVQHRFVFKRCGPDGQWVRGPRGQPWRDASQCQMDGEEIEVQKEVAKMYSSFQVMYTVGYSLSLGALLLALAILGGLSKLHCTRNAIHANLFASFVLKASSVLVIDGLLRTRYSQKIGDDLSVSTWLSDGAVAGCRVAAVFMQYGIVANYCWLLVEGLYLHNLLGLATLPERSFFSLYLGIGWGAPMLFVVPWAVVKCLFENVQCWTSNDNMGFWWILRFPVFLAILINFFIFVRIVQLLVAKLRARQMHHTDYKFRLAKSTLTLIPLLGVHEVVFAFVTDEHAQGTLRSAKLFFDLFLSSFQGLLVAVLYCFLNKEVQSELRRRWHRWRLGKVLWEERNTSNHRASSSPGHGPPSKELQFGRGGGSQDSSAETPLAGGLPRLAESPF

As for `CC(C)C[C@H](NC(=O)[C@H](Cc1c[nH]c2ccccc12)NC(=O)[C@H](CCCNC(=N)N)NC(=O)[C@@H](NC(=O)[C@H](Cc1ccccc1)NC(=O)[C@H](CC(=O)O)NC(=O)[C@H](CCCNC(=N)N)NC(=O)[C@H](C)NC(=O)[C@H](CCCNC(=N)N)NC(=O)[C@H](CCCCNC(=O)COCCOCCNC(=O)COCCOCCNC(=O)CC[C@H](NC(=O)CCCCCCCCCCCCCCCCC(=O)O)C(=O)O)NC(=O)[C@@H](NC(=O)[C@H](CC(=O)O)NC(=O)[C@H](CC(C)C)NC(=O)[C@](C)(Cc1ccccc1)NC(=O)[C@H](CCCCN)NC(=O)[C@H](CO)NC(=O)[C@@H](NC(=O)[C@H](CC(=O)O)NC(=O)[C@H](CO)NC(=O)[C@@H](NC(=O)[C@H](Cc1ccccc1)NC(=O)[C@@H](NC(=O)CNC(=O)[C@H](CCC(N)=O)NC(=O)C(C)(C)NC(=O)[C@@H](N)Cc1c[nH]cn1)[C@@H](C)O)[C@@H](C)O)C(C)C)[C@@H](C)O)C(C)C)C(=O)N[C@@H](CC(C)C)C(=O)N[C@@H](CCC(=O)O)C(=O)NC(C)(C)C(=O)NCC(=O)O` [Peptide 189] (H-H[Aib]QGTFTSDVSK[αMeF]LDTK([AEEA-AEEA-γGlu-C18 diacid])RARDFVRWLLE[Aib]G-OH; N-terminus assumed), the EC50 in experiment [1] (setting [3]) came to 0.0113 nM; in experiment [2] (setting [3]) it was 0.0443 nM. Further, the “% Relative Potency Ratio” value in experiment [1] (Table 6) is listed as 7.7.

Regarding `CC(C)C[C@H](NC(=O)[C@H](Cc1c[nH]c2ccccc12)NC(=O)[C@H](CCCNC(=N)N)NC(=O)[C@@H](NC(=O)[C@H](Cc1ccccc1)NC(=O)[C@H](CC(=O)O)NC(=O)[C@H](CCC(N)=O)NC(=O)[C@H](C)NC(=O)[C@H](CCCNC(=N)N)NC(=O)[C@H](CCCCNC(=O)COCCOCCNC(=O)COCCOCCNC(=O)CC[C@H](NC(=O)CCCCCCCCCCCCCCCCC(=O)O)C(=O)O)NC(=O)[C@H](CCCCN)NC(=O)[C@H](CC(=O)O)NC(=O)[C@H](CC(C)C)NC(=O)[C@](C)(Cc1ccccc1)NC(=O)[C@H](CCCCN)NC(=O)[C@H](CO)NC(=O)[C@@H](NC(=O)[C@H](CC(=O)O)NC(=O)[C@H](CO)NC(=O)[C@@H](NC(=O)[C@H](Cc1ccccc1)NC(=O)[C@@H](NC(=O)CNC(=O)[C@H](CCC(N)=O)NC(=O)C(C)(C)NC(=O)[C@@H](N)Cc1c[nH]cn1)[C@@H](C)O)[C@@H](C)O)C(C)C)C(C)C)C(=O)N[C@@H](CC(C)C)C(=O)N[C@@H](CCC(=O)O)C(=O)NC(C)(C)C(=O)NCC(N)=O` [Peptide 442] (H-H[Aib]QGTFTSDVSK[αMeF]LDKK([AEEA-AEEA-γGlu-C18 diacid])RAQDFVRWLLE[Aib]G-NH2; N-terminus assumed), the EC50 in experiment [1] (setting [3]) is 0.0191 nM; in experiment [2] (setting [3]), 0.0358 nM. In addition, the “% Relative Potency Ratio” value in experiment [1] (Table 6) stood at 3.7.

On to `CCCCCCCCCCCCCCCCCC(=O)N[C@@H](CCC(=O)NCCOCCOCCC(=O)NCCOCCOCCC(=O)NCCCC[C@H](NC(=O)[C@H](CO)NC(=O)[C@H](CC(=O)O)NC(=O)[C@H](CC(C)C)NC(=O)[C@@H](NC(=O)[C@H](CCCCN)NC(=O)[C@H](CO)NC(=O)[C@@H](NC(=O)[C@H](CC(=O)O)NC(=O)[C@H](CO)NC(=O)[C@@H](NC(=O)[C@](C)(Cc1ccccc1)NC(=O)[C@H](CO)NC(=O)CNC(=O)[C@H](CCC(N)=O)NC(=O)C(C)(C)NC(=O)[C@@H](N)Cc1c[nH]cn1)[C@@H](C)O)C(C)C)[C@@H](C)CC)C(=O)N[C@@H](C)C(=O)N[C@@H](C)C(=O)N[C@@H](CCC(N)=O)C(=O)N[C@@H](CC(=O)O)C(=O)N[C@@](C)(Cc1ccccc1)C(=O)N[C@H](C(=O)N[C@@H](CCC(N)=O)C(=O)NC(C)(C)C(=O)N[C@H](C(=O)N[C@H](C(=O)N[C@@H](CC(N)=O)C(=O)N[C@H](C(N)=O)[C@@H](C)O)[C@@H](C)CC)[C@@H](C)CC)C(C)C)C(=O)O` [Peptide 127] (H-H[Aib]QGS[αMeF]TSDVSKILDSK([PEG2-PEG2-γGlu-Stearoyl])AAQD[αMeF]VQ[Aib]IINT-NH2; N-terminus assumed), for which the “% Relative Potency Ratio” value in experiment [1] (Table 6) is 25.1. Also, in experiment [2] (setting [3]), the EC50 turned out to be 0.0126 nM.

For the molecule `CC(C)C[C@H](NC(=O)[C@H](Cc1c[nH]c2ccccc12)NC(=O)[C@H](CCCNC(=N)N)NC(=O)[C@@H](NC(=O)[C@H](Cc1ccccc1)NC(=O)[C@H](CC(=O)O)NC(=O)[C@H](CCC(N)=O)NC(=O)[C@H](C)NC(=O)[C@H](CCCNC(=N)N)NC(=O)[C@H](CCCCNC(=O)COCCOCCNC(=O)COCCOCCNC(=O)CC[C@H](NC(=O)CCCCCCCCCCCCCCCCC(=O)O)C(=O)O)NC(=O)[C@@H](NC(=O)[C@H](CC(=O)O)NC(=O)[C@H](CC(C)C)NC(=O)[C@](C)(Cc1ccccc1)NC(=O)[C@H](CCCCN)NC(=O)[C@H](CO)NC(=O)[C@@H](NC(=O)[C@H](CC(=O)O)NC(=O)[C@H](CO)NC(=O)[C@@H](NC(=O)[C@H](Cc1ccccc1)NC(=O)[C@@H](NC(=O)CNC(=O)[C@H](CCC(N)=O)NC(=O)C(C)(C)NC(=O)[C@@H](N)Cc1c[nH]cn1)[C@@H](C)O)[C@@H](C)O)C(C)C)[C@@H](C)O)C(C)C)C(=O)N[C@@H](CC(C)C)C(=O)N[C@@H](CCCNC(=N)N)C(=O)NC(C)(C)C(=O)N[C@@H](CCCCN)C(=O)O` [Peptide 493] (H-H[Aib]QGTFTSDVSK[αMeF]LDTK([AEEA-AEEA-γGlu-C18 diacid])RAQDFVRWLLR[Aib]K-OH; N-terminus assumed), the EC50 was found to be 0.0235 nM in experiment [1] (setting [3]) and 0.166 nM in experiment [2] (setting [3]). For the same molecule, the “% Relative Potency Ratio” value in experiment [1] (Table 6) is on record as 14.0.

With `CC[C@H](C)[C@H](NC(=O)C(C)(C)NC(=O)[C@H](CCC(N)=O)NC(=O)[C@@H](NC(=O)[C@](C)(Cc1ccccc1)NC(=O)[C@H](CC(=O)O)NC(=O)[C@H](CCC(N)=O)NC(=O)[C@H](C)NC(=O)[C@H](C)NC(=O)[C@H](CCCCNC(=O)COCCOCCNC(=O)COCCOCCNC(=O)CC[C@H](NC(=O)CC[C@H](NC(=O)CCCCCCCCCCCCCCCCC(=O)O)C(=O)O)C(=O)O)NC(=O)[C@H](CO)NC(=O)[C@H](CC(=O)O)NC(=O)[C@H](CC(C)C)NC(=O)[C@](C)(Cc1ccccc1)NC(=O)[C@H](CCCCN)NC(=O)[C@H](CO)NC(=O)[C@@H](NC(=O)[C@H](CC(=O)O)NC(=O)[C@H](CO)NC(=O)[C@@H](NC(=O)[C@](C)(Cc1ccccc1)NC(=O)[C@H](CO)NC(=O)CNC(=O)[C@H](CCC(N)=O)NC(=O)C(C)(C)NC(=O)[C@@H](N)Cc1c[nH]cn1)[C@@H](C)O)C(C)C)C(C)C)C(=O)N[C@@H](C)C(=O)N[C@@H](CC(N)=O)C(N)=O` [Peptide 5] (H-H[Aib]QGS[αMeF]TSDVSK[αMeF]LDSK([AEEA-AEEA-γGlu-γGlu-C18 diacid])AAQD[αMeF]VQ[Aib]IAN-NH2; N-terminus assumed), the EC50 in experiment [1] (setting [3]) was 0.283 nM; in experiment [2] (setting [3]) it was 7.14 nM. Besides, the “% Relative Potency Ratio” value in experiment [1] (Table 6) amounted to 49.9.

`CC[C@H](C)[C@H](NC(=O)[C@H](Cc1c[nH]c2ccccc12)NC(=O)[C@H](CCC(=O)O)NC(=O)[C@@H](NC(=O)[C@H](Cc1ccccc1)NC(=O)[C@H](CC(=O)O)NC(=O)[C@H](CCCCNC(=O)COCCOCCNC(=O)COCCOCCNC(=O)CC[C@H](NC(=O)CCCCCCCCCCCCCCCCC(=O)O)C(=O)O)NC(=O)[C@H](C)NC(=O)[C@H](C)NC(=O)[C@H](CCCNC(=N)N)NC(=O)[C@H](CO)NC(=O)[C@H](CC(=O)O)NC(=O)[C@H](CC(C)C)NC(=O)[C@](C)(Cc1ccccc1)NC(=O)[C@H](CCCCN)NC(=O)[C@H](CO)NC(=O)[C@@H](NC(=O)[C@H](CC(=O)O)NC(=O)[C@H](CO)NC(=O)[C@@H](NC(=O)[C@H](Cc1ccccc1)NC(=O)[C@@H](NC(=O)CNC(=O)[C@H](CCC(N)=O)NC(=O)C(C)(C)NC(=O)[C@@H](N)Cc1c[nH]cn1)[C@@H](C)O)[C@@H](C)O)C(C)C)C(C)C)C(=O)N[C@@H](C)C(=O)N[C@@H](CC(N)=O)C(=O)N[C@H](C(N)=O)[C@@H](C)O` [Peptide 306]: the EC50 in experiment [1] (setting [4]) was 0.0472 nM; in experiment [2] (setting [4]), 0.775 nM. In addition, the “% Relative Potency Ratio” value in experiment [1] (Table 7) was 32.5.

In the case of `CC(C)C[C@H](NC(=O)[C@H](CC(C)C)NC(=O)[C@H](Cc1c[nH]c2ccccc12)NC(=O)[C@H](CCCNC(=N)N)NC(=O)[C@@H](NC(=O)[C@H](Cc1ccccc1)NC(=O)[C@H](CC(=O)O)NC(=O)[C@H](CCC(N)=O)NC(=O)[C@H](C)NC(=O)[C@H](CCCNC(=N)N)NC(=O)[C@H](CCCCNC(=O)COCCOCCNC(=O)COCCOCCNC(=O)CCCCCCCCCCCCCCCCC(=O)O)NC(=O)[C@H](CCCCN)NC(=O)[C@H](CC(=O)O)NC(=O)[C@H](CC(C)C)NC(=O)[C@](C)(Cc1ccccc1)NC(=O)[C@H](CCCCN)NC(=O)[C@H](CO)NC(=O)[C@@H](NC(=O)[C@H](CC(=O)O)NC(=O)[C@H](CO)NC(=O)[C@@H](NC(=O)[C@H](Cc1ccccc1)NC(=O)[C@@H](NC(=O)CNC(=O)[C@H](CCC(N)=O)NC(=O)C(C)(C)NC(=O)[C@@H](N)Cc1c[nH]cn1)[C@@H](C)O)[C@@H](C)O)C(C)C)C(C)C)C(=O)N[C@@H](C)C(=O)NC(C)(C)C(=O)N[C@@H](CCCCN)C(=O)O` [Peptide 184] (H-H[Aib]QGTFTSDVSK[αMeF]LDKK([AEEA-AEEA-C18 diacid])RAQDFVRWLLA[Aib]K-OH; N-terminus assumed), the EC50 turned out to be 0.022 nM in experiment [1] (setting [3]) and 0.0296 nM in experiment [2] (setting [3]). For the same molecule, in experiment [1] (Table 6), the “% Relative Potency Ratio” value amounted to 2.7.

For the origin of these results see patent US20250353891A1 (MEDIMMUNE LIMITED, priority 2022, published 2025).
